Results from PubChem BioAssay (NCI).
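How tested: cells in 96-well plates exposed to compound for 48 hours at five concentrations. Here, GI50 denotes the concentration required for 50% inhibition of growth. TGI is the concentration that stops growth completely.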

Legend:
Assay in all cases: inhibition of tumour cell growth, NCI panel, 48 h
[1] = tested on: 786-0 renal
[2] = tested on: A498 renal
[3] = tested on: A549 NSCLC
[4] = tested on: ACHN renal
[5] = tested on: BT-549 breast
[6] = tested on: CAKI-1 renal
[7] = tested on: COLO 205 colon
[8] = tested on: DU-145 prostate
[9] = tested on: EKVX NSCLC
[10] = tested on: HCC-2998 colon
[11] = tested on: HCT-116 colon
[12] = tested on: HCT-15 colon
[13] = tested on: HL-60(TB) leukemia
[14] = tested on: HOP-62 NSCLC
[15] = tested on: HOP-92 NSCLC
[16] = tested on: HS 578T breast
[17] = tested on: HT29 colon
[18] = tested on: IGROV1 ovarian
[19] = tested on: K-562 leukemia
[20] = tested on: KM12 colon
[21] = tested on: LOX IMVI melanoma
[22] = tested on: M14 melanoma
[23] = tested on: MALME-3M melanoma
[24] = tested on: MCF7 breast
[25] = tested on: MDA-MB-231 breast
[26] = tested on: MDA-MB-435
[27] = tested on: NCI-H226 lung
[28] = tested on: NCI-H23 lung
[29] = tested on: NCI-H460 lung
[30] = tested on: NCI-H522 lung
[31] = tested on: NCI/ADR-RES ovarian
[32] = tested on: OVCAR-3 ovarian
[33] = tested on: OVCAR-4 ovarian
[34] = tested on: OVCAR-5 ovarian
[35] = tested on: OVCAR-8 ovarian
[36] = tested on: PC-3 prostate
[37] = tested on: RPMI-8226 leukemia
[38] = tested on: RXF 393 renal
[39] = tested on: SF-268 CNS
[40] = tested on: SF-295 CNS
[41] = tested on: SF-539 CNS
[42] = tested on: SK-MEL-2 melanoma
[43] = tested on: SK-MEL-28 melanoma
[44] = tested on: SK-MEL-5 melanoma
[45] = tested on: SK-OV-3 ovarian
[46] = tested on: SN12C renal
[47] = tested on: SNB-19 CNS
[48] = tested on: SNB-75 CNS
[49] = tested on: SW-620 colon
[50] = tested on: T-47D breast
[51] = tested on: U251 CNS
[52] = tested on: UACC-257 melanoma
[53] = tested on: UACC-62 melanoma
[54] = tested on: UO-31 renal

CC(=O)Nc1cc(C(c2ccccc2)c2ccccc2)cc(C(c2ccccc2)c2ccccc2)c1C
GI50 [1]: > 100 µM
TGI [1]: > 100 µM
GI50 [2]: 6.24 µM
TGI [2]: > 100 µM
GI50 [3]: 4.95 µM
TGI [3]: > 100 µM
GI50 [4]: 8.71 µM
TGI [4]: > 100 µM
GI50 [5]: 8.2 µM
TGI [5]: > 100 µM
GI50 [6]: > 100 µM
TGI [6]: > 100 µM
GI50 [7]: 7.36 µM
TGI [7]: > 100 µM
GI50 [8]: > 100 µM
TGI [8]: > 100 µM
GI50 [9]: 3.23 µM
TGI [9]: > 100 µM
GI50 [10]: 14.7 µM
TGI [10]: > 100 µM
GI50 [11]: 3.28 µM
TGI [11]: > 100 µM
GI50 [12]: 7.12 µM
TGI [12]: > 100 µM
GI50 [13]: 3.1 µM
TGI [13]: > 100 µM
GI50 [14]: > 100 µM
TGI [14]: > 100 µM
GI50 [15]: 4.68 µM
TGI [15]: > 100 µM
GI50 [16]: 28 µM
TGI [16]: > 100 µM
GI50 [17]: 8.26 µM
TGI [17]: > 100 µM
GI50 [18]: 32.5 µM
TGI [18]: > 100 µM
GI50 [19]: 2.83 µM
TGI [19]: > 100 µM
GI50 [20]: 6.19 µM
TGI [20]: > 100 µM
GI50 [21]: 7.98 µM
TGI [21]: > 100 µM
GI50 [22]: > 100 µM
TGI [22]: > 100 µM
GI50 [23]: 9.59 µM
TGI [23]: > 100 µM
GI50 [24]: 4.77 µM
TGI [24]: > 100 µM
GI50 [25]: 4.21 µM
TGI [25]: > 100 µM
GI50 [26]: 6.81 µM
TGI [26]: > 100 µM
GI50 [27]: 6.8 µM
TGI [27]: > 100 µM
GI50 [28]: 6.22 µM
TGI [28]: > 100 µM
GI50 [29]: 7.49 µM
TGI [29]: > 100 µM
GI50 [30]: 6.39 µM
TGI [30]: > 100 µM
GI50 [31]: 6.01 µM
TGI [31]: > 100 µM
GI50 [32]: 7.33 µM
TGI [32]: > 100 µM
GI50 [33]: 21.7 µM
TGI [33]: > 100 µM
GI50 [34]: > 100 µM
TGI [34]: > 100 µM
GI50 [35]: > 100 µM
TGI [35]: > 100 µM
GI50 [36]: 4.13 µM
TGI [36]: > 100 µM
GI50 [37]: 1.88 µM
TGI [37]: 7.67 µM
GI50 [38]: 27.5 µM
TGI [38]: > 100 µM
GI50 [39]: 8.2 µM
TGI [39]: > 100 µM
GI50 [40]: 2.64 µM
TGI [40]: 7.49 µM
GI50 [41]: > 100 µM
TGI [41]: > 100 µM
GI50 [42]: 5.18 µM
TGI [42]: > 100 µM
GI50 [43]: > 100 µM
TGI [43]: > 100 µM
GI50 [44]: 5.51 µM
TGI [44]: > 100 µM
GI50 [45]: > 100 µM
TGI [45]: > 100 µM
GI50 [46]: 27.5 µM
TGI [46]: > 100 µM
GI50 [47]: > 100 µM
TGI [47]: > 100 µM
GI50 [48]: 21.4 µM
TGI [48]: > 100 µM
GI50 [49]: 7.25 µM
TGI [49]: > 100 µM
GI50 [50]: 3.18 µM
TGI [50]: > 100 µM
GI50 [51]: 7.63 µM
TGI [51]: > 100 µM
GI50 [52]: 8.72 µM
TGI [52]: > 100 µM
GI50 [53]: 5.86 µM
TGI [53]: > 100 µM
GI50 [54]: 3.54 µM
TGI [54]: > 100 µM
